Read-outs that look alike come from different tables or passages of the source.
Assays:
U87MG = assay: MTT cell viability assay, U87MG; type: cell-based, human; conditions: Homo sapiens, U-87 MG, 48 hrs
Protocol: (§1) Human cervical cancer cell lines (HeLa, ME-180 and SiHa), brain tumor cell lines (U87MG, U373MG, U87MG EGFRvIII, T98G, A172 and LN229), lymphoid leukemia (MOLT-3, MOLT-4, REH and CEMC-7), myloid leukemia (K562), pancreatic cancer (MIAPaCa-2, AsPC-1, Panc-1 and Panc 10.05), lung cancer (A549) and colon cancer (HCT116 and SW480) cell lines from American Type Culture Collection, Manassas, Va., USA were grown in IMDM or RPMI (cell specific) Medium supplemented with 10% fetal bovine serum and 1% antibiotic-antimycotic. Cells were cultured in 37° C. in an atmosphere of 5% CO2.
(§2) Viability of cancer cell lines after treatment as at the indicated times was determined by MTT assay. Briefly, 10,000 cells were plated in triplicate in 96 well plates and incubated for 24 and 48 hours in complete media in presence of varying dose of mahanine (0-50 μM). 100 ug MTT was added in each well. Incubate the plate for 1-4 hours at 37° C. and humidified 5% CO2 atmosphere. Absorbance was recorded at 550 nm with 96 well plate readers.

U373MG = assay: MTT cell viability assay, U373MG; type: cell-based, human; conditions: Homo sapiens, U373 MG, 48 hrs
Protocol: as §1, §2

MIAPaCa-2 [1] = assay: In vitro colony formation on matrigel; type: cell-based, human
CEM C7 = assay: MTT cell viability assay, CEM C7; type: cell-based, human; conditions: Homo sapiens; CEM C7, 48 hrs
Protocol: as §1, §2

MIAPaCa-2 [2] = assay: Transmigration assay (EGF-driven); type: cell-based, human; conditions: 24 hrs exposure
Protocol: MIAPaCa-2 cells were treated with mahanine in dose responsive manner for 24 hrs. Afterward, different growth factors (VEGF, EGF and PDGF) were dissolved in medium at a final concentration of 20 ng/ml and added into the outer well of the 24-transwell plate (PromoCell Heidelberg, Germany) as per manufacturer instruction. Mahanine-pretreated cells (5×10^4 cells/well/500 μl) were added into the insert and incubated at in a humidified incubator (37° C., 5% CO2) for 6 hours and subsequently invaded cells were fixed with chilled methanol and stained with 0.1% crystal violet. Random fields were photographed and quantified under the phase contrast microscope.

NCIH23 = assay: MTT cell viability assay, NCIH23; type: cell-based, human; conditions: Homo sapiens, NCI-H23; NCIH23, 48 hrs
Protocol: as §2

[3] = tested on: Normal cells [heart, liver, muscle and peripheral blood mononuclear cells (PBMC)]; assay: In vitro testing on normal cells; type: cell-based, rat
Protocol: The cardiomyocytes from 2-day-old neonatal rat were isolated. Briefly, heart was excised and minced in pre warmed (37° C.) Ads buffer (1.2M NaCl, 198 mM HEPES, 54 mM KCl, 8.3 mM MgSO4, 55.4 mM glucose, 95 mM NaH2PO4), digested in typeII Collagenase 0.05% and Pancreatin in 3-successive digestions of 15 minutes each. Supernatant was pooled and cells palleted at 2000 g, 10 minutes. Cells were resuspended and plated in collagen coated T-25 flaks in Medium-199 enriched with 10% Fetal Bovine Serum and 1% antibiotic-antimycotic.
The hepatocytes from 2-day-old neonatal rat were isolated. Briefly, The liver were perfused through the portal vein with a calcium-free solution consisting of 150 mM NaCl, 2.8 mM KCl, 5.5 mM glucose, and 25 mM HEPES (pH 7.6) for 10 min, followed by mincing and digestion in DMEM containing 0.05% collagenase type IV for 30 minutes. The cells were centrifuged (2000 g, 10 minutes) and dispersed in DMEM enriched with 10% fetal Bovine Serum, 1% antibiotic-antimycotic.
The skeletal muscles from 2-day-old neonatal rat were isolated. Briefly, Soleus muscles were dissected minced and digested with 0.2% Type II Collagenase and 0.05% trypsin in Phosphate buffered Saline (PBS) pH 7.4, 0.15 M NaCl. […]
Viability of cancer cell lines after treatment as at the indicated times was determined by MTT assay. […] Absorbance was recorded at 550 nm with 96 well plate readers.

[4] = tested on: intracellular Ca2+ in MIAPaCa-2; assay: Intracellular Ca2+ measurement (Fluo-3/AM); type: cell-based, human; conditions: MIAPaCa-2, with and without extra-cellular Ca2+
Protocol: MIAPaCa-2 cells (3×10^6), treated with mahanine, were washed in 1× Hanks Balanced Salt Solution (HBSS) [Gibco, Invitrogen Corporation, USA] and then loaded with Fluo-3/AM (2 μM, Calbiochem, Germany) in HBSS containing 1.26 mM CaCl2. The cells were incubated at 37° C. for 30 min in dark with gentle agitation. All extracellular Fluo-3/AM was removed by two-three times washing in aforesaid buffer. The level of cytoplasmic Ca^2+ within Fluo-3/AM loaded MIAPaCa-2 was determined in time dependent manner in the absence and presence of CaCl2 (1.26 mM CaCl2).

Panc1 = assay: MTT cell viability assay, Panc1; type: cell-based, human; conditions: Homo sapiens, PANC-1; Panc1, 48 hrs
Protocol: as §1, §2

cancer cell lines = assay: MTT assay, pooled cancer cell lines of several cancer types; type: cell-based, human
Protocol: as §1, §2

MIAPaCa-2 [5] = assay: Scratch-wound haptotaxis assay, MIAPaCa-2; type: cell-based, human; conditions: MIAPaCa-2, highest treated cells, 6 hrs
Protocol: Highly and moderately invasive pancreatic cancer cell lines, MIAPaCa-2 and BxPC3 (1×10^6/ml/well) were cultured to >90% confluence in 6 well plate. Consequently, cell were rinsed with PBS and starved in low serum media (2 ml containing 0.5%-0.1% serum in RPMI-1640 for MIAPaCa-2 and BxPC-3) for overnight. On the following day, three separate scratch-wounds were made through the confluent cells. Scratched plate was rinsed with PBS and replaced with serum starved media containing successive doses of mahanine or EtOH for 6 hrs. Picture was taken by using phase contrast at 10× accordingly.

Molt-4 = assay: MTT cell viability assay, Molt-4; type: cell-based, human; conditions: Homo sapiens; Molt-4, 48 hrs
Protocol: as §1, §2

LN229 = assay: MTT cell viability assay, LN229; type: cell-based, human; conditions: Homo sapiens, LN-229; LN229, 48 hrs
Protocol: as §1, §2

## CC(C)=CCCC1(C)C=Cc2c(c(C)cc3c2[nH]c2cc(O)ccc23)O1 (centres unmarked) [Mahanine, mahanine]
U87MG
  IC50: 13.4 ± 0.4 µM
U373MG
  IC50: 16.8 ± 0.6 µM
MIAPaCa-2 [1]; 15 μM, within 24 hrs
  colony formation: absolutely inhibited
MIAPaCa-2 [1]; 20 μM, after 72 hrs
  colony formation: could not colonize
MIAPaCa-2 [1]; Homo sapiens, MIA PaCa-2, 10 μM, within 24 hrs
  inhibition at 10 µM: ~20%
CEM C7
  IC50: 10.2 ± 0.1 µM
MIAPaCa-2 [2]; ~0.6×IC50 (10 μM)
  EGF-driven MIAPaCa-2 migration, % of controls: 48.6 % of controls
MIAPaCa-2 [2]; ~1×IC50, 15 μM
  EGF-driven MIAPaCa-2 migration: nearly complete inhibition
NCIH23
  IC50: 7.08 ± 0.1 µM
[3]; PBMC, mahanine at 50 μM, normal rat tissue cells, Vero and WI-38
  inhibition at 50 µM: 15 to 20%
[3]; heart, liver, muscle and PBMC, in vitro
  sensitivity of normal cells: less sensitive
[4]
  time to maximum enhancement of intracellular Ca2+ pool: ≤ 15 min
Panc1
  IC50: 16.5 ± 0.2 µM
Cancer cell lines; Homo sapiens, Pancreatic cancer cell, 48 h, range, 48 hr treatment, read-out: IC50, glioma, cervical and pancreatic cancer cell lines
  IC50: 11 to 14 µM
Cancer cell lines; Homo sapiens, mahanine at 20 μM, read-out: inhibition of cancer cells
  inhibition at 20 µM: 75 to 85%
Cancer cell lines; range over glioma and cervical cancer cell lines, 48 hr, listed as 1b, read-out: IC50, glioma and cervical cancer cells
  IC50: 30 to 50 µM
Cancer cell lines; range over glioma and cervical cancer cell lines, 48 hr, read-out: IC50, glioma and cervical cancer cells
  IC50: 12 to 17 µM
MIAPaCa-2 [5]
  wound closure / migratory cells: < 5%
Molt-4
  IC50: 10.7 ± 0.6 µM
LN229
  IC50: 13.7 ± 0.3 µM

From patent publication US8637679B2, “Process for the isolation of organic compounds useful for the treatment of cancer” (Council of Scientific and Industrial Research, priority 2011, dated 2014)
